Test system: 362531-283-R-J2-PDC complex spheroid viability
Assay: Anticancer human tumor 362531-283-R-J2-PDC patient-derived colon adenocarcinoma cell line growth inhibition [RAS]
Settings: for viability, T/C: stronger effect = lower value; active = viability on the fitted dose curve at most 10% of control; inactive = the rest
Summary of the method: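 Agents were tested in combination matrices in half-log decrements from a top concentration at or near clinical Cmax (10 microM if undetermined). Targets were multi-cell spheroids of tumour lines plus HUVEC and MSC stromal cells.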

[1] = curve of first compound, second compound 0.000949 µM
[2] = curve of first compound, second compound 0.003 µM
[3] = curve of first compound, second compound 0.00949 µM
[4] = curve of first compound, second compound 0.03 µM
[5] = curve of first compound, second compound 0.0949 µM
[6] = curve of first compound, second compound 0.3 µM
[7] = second compound 0.000949 µM, first compound 0.0316 µM
[8] = second compound 0.000949 µM, first compound 0.1 µM
[9] = second compound 0.000949 µM, first compound 0.316 µM
[10] = second compound 0.000949 µM, first compound 1 µM
[11] = second compound 0.003 µM, first compound 0.0316 µM
[12] = second compound 0.003 µM, first compound 0.1 µM
[13] = second compound 0.003 µM, first compound 0.316 µM
[14] = second compound 0.003 µM, first compound 1 µM
[15] = second compound 0.00949 µM, first compound 0.0316 µM
[16] = second compound 0.00949 µM, first compound 0.1 µM
[17] = second compound 0.00949 µM, first compound 0.316 µM
[18] = second compound 0.00949 µM, first compound 1 µM
[19] = second compound 0.03 µM, first compound 0.0316 µM
[20] = second compound 0.03 µM, first compound 0.1 µM
[21] = second compound 0.03 µM, first compound 0.316 µM
[22] = second compound 0.03 µM, first compound 1 µM
[23] = second compound 0.0949 µM, first compound 0.0316 µM
[24] = second compound 0.0949 µM, first compound 0.1 µM
[25] = second compound 0.0949 µM, first compound 0.316 µM
[26] = second compound 0.0949 µM, first compound 1 µM
[27] = second compound 0.3 µM, first compound 0.0316 µM
[28] = second compound 0.3 µM, first compound 0.1 µM
[29] = second compound 0.3 µM, first compound 0.316 µM
[30] = second compound 0.3 µM, first compound 1 µM
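Also: spheroids exposed to the agents for 7 days before readout.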
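For viability, T/C in this document: luminescence viability as percent of DMSO vehicle control wells.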

Cc1nc(N2CCC3(CC2)COC(C)C3N)c(CO)nc1Sc1ccnc(N)c1Cl (stereo not drawn) + C#Cc1c(F)ccc2cc(O)cc(-c3ncc4c(N5CC6CCC(C5)N6)nc(OCC56CCCN5CC(F)C6)nc4c3F)c12
inactive: viability, T/C (second compound 0.0316 µM, first compound 0.0316 µM) 104% | viability, T/C (second compound 0.0316 µM, first compound 0.1 µM) 107% | viability, T/C (second compound 0.0316 µM, first compound 0.316 µM) 94.8% | viability, T/C (second compound 0.0316 µM, first compound 1 µM) 88.9% | viability, T/C (second compound 0.0316 µM, first compound 3.16 µM) 76.1% | viability, T/C (second compound 0.0316 µM, first compound 10 µM) 19.1% | viability, T/C (second compound 0.1 µM, first compound 0.0316 µM) 104% | viability, T/C (second compound 0.1 µM, first compound 0.1 µM) 102% | viability, T/C (second compound 0.1 µM, first compound 0.316 µM) 92.3% | viability, T/C (second compound 0.1 µM, first compound 1 µM) 69.5% | viability, T/C (second compound 0.1 µM, first compound 3.16 µM) 25.7% | viability, T/C (second compound 0.316 µM, first compound 0.0316 µM) 99.9% | viability, T/C (second compound 0.316 µM, first compound 0.1 µM) 93.3% | viability, T/C (second compound 0.316 µM, first compound 0.316 µM) 79.2% | viability, T/C (second compound 0.316 µM, first compound 1 µM) 49.8% | viability, T/C (second compound 0.316 µM, first compound 3.16 µM) 7.28% | viability, T/C (second compound 1 µM, first compound 0.0316 µM) 81% | viability, T/C (second compound 1 µM, first compound 0.1 µM) 81.5% | viability, T/C (second compound 1 µM, first compound 0.316 µM) 69.5% | viability, T/C (second compound 1 µM, first compound 1 µM) 16.2% | viability, T/C (second compound 3.16 µM, first compound 0.0316 µM) 81% | viability, T/C (second compound 3.16 µM, first compound 0.1 µM) 59.2% | viability, T/C (second compound 3.16 µM, first compound 0.316 µM) 35.6% | viability, T/C (second compound 3.16 µM, first compound 1 µM) 11% | viability, T/C (second compound 10 µM, first compound 0.0316 µM) 38% | viability, T/C (second compound 10 µM, first compound 0.1 µM) 22.6% | viability, T/C (second compound 10 µM, first compound 0.316 µM) 14.1% | viability, T/C (second compound 10 µM, first compound 1 µM) 13.3%
156 nM: IC50 (curve of first compound, second compound 3.16 µM)
1650 nM: IC50 (curve of first compound, second compound 0.1 µM)
883 nM: IC50 (curve of first compound, second compound 0.316 µM)
482 nM: IC50 (curve of first compound, second compound 1 µM)
< 31.6 nM: IC50 (curve of first compound, second compound 10 µM)
active: viability, T/C (second compound 0.1 µM, first compound 10 µM) 4.47% | viability, T/C (second compound 0.316 µM, first compound 10 µM) 4.45% | viability, T/C (second compound 1 µM, first compound 3.16 µM) 7.77% | viability, T/C (second compound 1 µM, first compound 10 µM) 4.16% | viability, T/C (second compound 3.16 µM, first compound 3.16 µM) 9.29% | viability, T/C (second compound 3.16 µM, first compound 10 µM) 6.04% | viability, T/C (second compound 10 µM, first compound 3.16 µM) 8.12% | viability, T/C (second compound 10 µM, first compound 10 µM) 3.97%
5180 nM: IC50 (curve of first compound, second compound 0.0316 µM)

CCN1CCN(Cc2ccc(Nc3ncc(F)c(-c4cc(F)c5nc(C)n(C(C)C)c5c4)n3)nc2)CC1 + CCn1c(-c2cccnc2C(C)OC)c2c3cc(ccc31)N1CCOC(CC(NC(=O)C(C(C)C)N(C)C(=O)C3(F)CCN(C(=O)C#CC(C)(C)N(C)C)CC3)C(=O)N3CCCC(N3)C(=O)OCC(C)(C)C2)C1
876 nM: IC50 [3]
> 1000 nM: IC50 [1] | IC50 [4] | IC50 [5]
inactive: viability, T/C (second compound 0.000949 µM, first compound 0.00316 µM) 96% | viability, T/C (second compound 0.000949 µM, first compound 0.01 µM) 92% | viability, T/C [7] 67.3% | viability, T/C [8] 83.8% | viability, T/C [9] 66.4% | viability, T/C [10] 46.7% | viability, T/C (second compound 0.003 µM, first compound 0.00316 µM) 108% | viability, T/C (second compound 0.003 µM, first compound 0.01 µM) 98.5% | viability, T/C [11] 65.6% | viability, T/C [12] 73% | viability, T/C [13] 66.6% | viability, T/C [14] 40.9% | viability, T/C (second compound 0.00949 µM, first compound 0.00316 µM) 105% | viability, T/C (second compound 0.00949 µM, first compound 0.01 µM) 105% | viability, T/C [15] 55.3% | viability, T/C [16] 74.4% | viability, T/C [17] 59.8% | viability, T/C [18] 45.7% | viability, T/C (second compound 0.03 µM, first compound 0.00316 µM) 112% | viability, T/C (second compound 0.03 µM, first compound 0.01 µM) 94.2% | viability, T/C [19] 57.5% | viability, T/C [20] 65.8% | viability, T/C [21] 66.1% | viability, T/C [22] 43.4% | viability, T/C (second compound 0.0949 µM, first compound 0.00316 µM) 103% | viability, T/C (second compound 0.0949 µM, first compound 0.01 µM) 88.3% | viability, T/C [23] 53.4% | viability, T/C [24] 69% | viability, T/C [25] 65% | viability, T/C [26] 46.6% | viability, T/C (second compound 0.3 µM, first compound 0.00316 µM) 100% | viability, T/C (second compound 0.3 µM, first compound 0.01 µM) 82.5% | viability, T/C [27] 56.4% | viability, T/C [28] 64.9% | viability, T/C [29] 57.2% | viability, T/C [30] 40.9%
437 nM: IC50 [6]
719 nM: IC50 [2]

CCc1c2c(nc3ccc(O)cc13)-c1cc3c(c(=O)n1C2)COC(=O)[C@]3(O)CC
inactive: viability, T/C (compound 0.000949 µM) 92.4% [middle of 4 runs] | viability, T/C (compound 0.003 µM) 93.4% [middle of 4 runs] | viability, T/C (compound 0.00949 µM) 74.5% [middle of 4 runs] | viability, T/C (compound 0.03 µM) 61.8% [middle of 4 runs] | viability, T/C (compound 0.0949 µM) 30.2% [middle of 4 runs] | viability, T/C (compound 0.3 µM) 19.9% [middle of 4 runs]
43.7 nM [middle of 4 runs]: IC50 (curve of compound)

CC(C)NCC(C(=O)N1CCN(c2ncnc3c2C(C)CC3O)CC1)c1ccc(Cl)cc1 (stereo not drawn) + CCn1c(-c2cc(N3CCN(C)CC3)cnc2C(C)OC)c2c3cc(ccc31)-c1csc(n1)CC(NC(=O)C1CC1C)C(=O)N1CCCC(N1)C(=O)OCC(C)(C)C2
< 31.6 nM: IC50 [6]
inactive: viability, T/C [7] 103% | viability, T/C [8] 103% | viability, T/C [9] 101% | viability, T/C [10] 99.5% | viability, T/C (second compound 0.000949 µM, first compound 3.16 µM) 92.7% | viability, T/C (second compound 0.000949 µM, first compound 10 µM) 89.7% | viability, T/C [11] 95.6% | viability, T/C [12] 109% | viability, T/C [13] 97.8% | viability, T/C [14] 98.7% | viability, T/C (second compound 0.003 µM, first compound 3.16 µM) 106% | viability, T/C (second compound 0.003 µM, first compound 10 µM) 100% | viability, T/C [15] 103% | viability, T/C [16] 110% | viability, T/C [17] 89.7% | viability, T/C [18] 99% | viability, T/C (second compound 0.00949 µM, first compound 3.16 µM) 93.6% | viability, T/C (second compound 0.00949 µM, first compound 10 µM) 93.2% | viability, T/C [19] 99.4% | viability, T/C [20] 83.8% | viability, T/C [21] 84.1% | viability, T/C [22] 87.8% | viability, T/C (second compound 0.03 µM, first compound 3.16 µM) 92.6% | viability, T/C (second compound 0.03 µM, first compound 10 µM) 85.7% | viability, T/C [23] 81.8% | viability, T/C [24] 101% | viability, T/C [25] 86.1% | viability, T/C [26] 72.3% | viability, T/C (second compound 0.0949 µM, first compound 3.16 µM) 76.4% | viability, T/C (second compound 0.0949 µM, first compound 10 µM) 65.4% | viability, T/C [27] 46.8% | viability, T/C [28] 53.9% | viability, T/C [29] 42.6% | viability, T/C [30] 41.6% | viability, T/C (second compound 0.3 µM, first compound 3.16 µM) 31% | viability, T/C (second compound 0.3 µM, first compound 10 µM) 33.5%
> 10000 nM: IC50 [1] | IC50 [2] | IC50 [3] | IC50 [4] | IC50 [5]
